Assays:
L363 cells = experiment: MTS cell viability assay, L363 cells; assay type: cell-based; settings: 48 h treatment
[1] = Conversion of Allopole to Allopole-A in buffers ± GSH (LC-MS); assay type: physicochemical; settings: room temperature, 1 h; for Compounds detected / Compounds detected, % of total / Compounds detected, pk area: 100 µM Allopole
Description: High-performance liquid chromatography (HPLC)/high-resolution mass spectrometry was used to determine the products derived from investigational drugs incubated under various conditions by measuring their exact masses. Thereafter, 20 μL aliquots of several drug preparations in either DMSO or aqueous reaction solutions were diluted 2:1 in ethanol, followed by centrifugation at 15,000 × g for 5 min. The supernatant was then injected on a Thermo Vanquish liquid chromatograph coupled to a Thermo Q Exactive Orbitrap mass spectrometer (Thermo Fisher Scientific). The conditions for the analysis are listed as follows.
The analytes were identified using the Dmass between the predicted and measured exact monoisotopic mass for the protonated molecular ions applied to the empirical formula algorithm in the Qual Browser application of the Xcalibur software (Themo Scientific). Selected ions from the base peak chromatogram were extracted for integration of peak areas. The relative amounts of each analyte to the sum total were calculated to estimate conversion of and prodrug under the specific conditions to breakdown products.
Table S2. Conversion of Allopole to Allopole-A under various buffer conditions, room
Buffers* Compounds detected
Allopole-A Allopole-A (-S) Allopole (-Cl) Allopole
* Buffer #1: 20 mM Tris (pH 8.0), 50 mM NaCl, 1 mM EDTA, 1% DMSO
Buffer #2: 1 x PBS (pH 7.4), 1 mM EDTA, 1% DMSO
Buffer #3: 20 mM HEPES (pH 7.0), 50 mM NaCl, 1 mM EDTA, 1% DMSO
Samples were prepared by incubating 100 µM of Allopole in the indicated buffer conditions in the
absence or presence of 5 mM GSH for 1 h at room temperature. Note that in the absence of GSH,

5-HT1B = target: T1, 5-HT1B (Homo sapiens, UniProt P28222); experiment: PDSP off-target binding screen; settings: for inhibition at 10 µM: read-out: Primary screen AVE(%inhib)±SD; for Ki: read-out: Secondary screen Ki
T1 construct: NIMH Psychoactive Drug Screening Program (UNC)
T1 sequence (P28222 whole entry): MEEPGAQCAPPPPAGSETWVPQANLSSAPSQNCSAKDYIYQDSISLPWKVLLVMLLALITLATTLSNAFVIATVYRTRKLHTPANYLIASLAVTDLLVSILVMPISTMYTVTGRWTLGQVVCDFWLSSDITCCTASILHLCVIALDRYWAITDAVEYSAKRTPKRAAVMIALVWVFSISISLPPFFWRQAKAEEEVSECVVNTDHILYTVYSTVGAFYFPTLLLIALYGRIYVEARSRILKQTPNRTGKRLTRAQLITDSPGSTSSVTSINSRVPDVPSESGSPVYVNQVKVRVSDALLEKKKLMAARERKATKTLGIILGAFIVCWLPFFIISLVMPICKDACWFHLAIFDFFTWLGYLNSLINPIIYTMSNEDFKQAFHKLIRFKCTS
From the text: (§1) PDSP no. Compound Interactions (Ki, µM)
(§2) 60477 Allopole-A None observed.
(§3) trigger a secondary screen at that receptor.

5-HT1E = target: T2, 5-HT1E (Homo sapiens, UniProt P28566); experiment: PDSP off-target binding screen; settings: for inhibition at 10 µM: read-out: Primary screen AVE(%inhib)±SD; for Ki: read-out: Secondary screen Ki
T2 construct: NIMH Psychoactive Drug Screening Program (UNC)
T2 sequence (P28566 whole entry): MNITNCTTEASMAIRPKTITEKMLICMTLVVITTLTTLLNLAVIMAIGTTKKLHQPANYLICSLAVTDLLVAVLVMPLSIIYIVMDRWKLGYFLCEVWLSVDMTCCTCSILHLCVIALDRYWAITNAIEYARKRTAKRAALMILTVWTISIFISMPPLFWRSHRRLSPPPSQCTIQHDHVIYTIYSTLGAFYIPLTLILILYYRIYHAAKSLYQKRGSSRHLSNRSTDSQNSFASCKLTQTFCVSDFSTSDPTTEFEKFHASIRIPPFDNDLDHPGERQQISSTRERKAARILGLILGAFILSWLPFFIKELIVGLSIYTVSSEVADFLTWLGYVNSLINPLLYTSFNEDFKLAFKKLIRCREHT
From the text: as §1, §2, §3

Alpha2A = target: T3, Alpha2A (Homo sapiens, UniProt P08913); experiment: PDSP off-target binding screen; settings: for inhibition at 10 µM: read-out: Primary screen AVE(%inhib)±SD; for Ki: read-out: Secondary screen Ki
T3 sequence (P08913 1-465): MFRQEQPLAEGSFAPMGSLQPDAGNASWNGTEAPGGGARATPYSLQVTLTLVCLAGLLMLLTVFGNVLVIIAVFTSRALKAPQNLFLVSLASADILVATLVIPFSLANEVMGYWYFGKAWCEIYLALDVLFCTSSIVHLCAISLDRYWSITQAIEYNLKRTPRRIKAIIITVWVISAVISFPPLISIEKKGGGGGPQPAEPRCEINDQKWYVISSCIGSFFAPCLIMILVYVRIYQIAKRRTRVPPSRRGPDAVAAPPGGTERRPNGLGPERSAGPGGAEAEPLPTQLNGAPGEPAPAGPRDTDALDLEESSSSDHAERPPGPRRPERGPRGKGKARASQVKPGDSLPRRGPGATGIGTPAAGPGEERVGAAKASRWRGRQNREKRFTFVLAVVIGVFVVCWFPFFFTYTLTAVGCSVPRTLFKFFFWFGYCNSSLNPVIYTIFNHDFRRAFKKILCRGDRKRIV
From the text: as §1, §2, §3

Alpha2C = target: T4, Alpha2C (Homo sapiens, UniProt P18825); experiment: PDSP off-target binding screen; settings: for inhibition at 10 µM: read-out: Primary screen AVE(%inhib)±SD; for Ki: read-out: Secondary screen Ki
T4 sequence (P18825 1-462): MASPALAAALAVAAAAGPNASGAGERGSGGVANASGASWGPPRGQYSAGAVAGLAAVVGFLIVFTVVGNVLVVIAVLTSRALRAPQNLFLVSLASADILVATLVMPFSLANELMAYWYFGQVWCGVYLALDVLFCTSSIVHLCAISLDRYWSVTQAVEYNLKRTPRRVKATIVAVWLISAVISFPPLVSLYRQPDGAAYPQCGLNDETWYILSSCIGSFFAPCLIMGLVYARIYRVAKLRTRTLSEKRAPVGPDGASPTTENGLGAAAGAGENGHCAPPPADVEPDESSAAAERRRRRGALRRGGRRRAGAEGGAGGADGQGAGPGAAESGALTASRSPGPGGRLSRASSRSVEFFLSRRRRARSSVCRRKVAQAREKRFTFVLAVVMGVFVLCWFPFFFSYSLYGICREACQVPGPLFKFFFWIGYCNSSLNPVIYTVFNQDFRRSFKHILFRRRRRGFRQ
From the text: as §1, §2, §3

Beta1 = Beta1 (Homo sapiens, UniProt P08588); experiment: PDSP off-target binding screen; settings: for inhibition at 10 µM: read-out: Primary screen AVE(%inhib)±SD; for Ki: read-out: Secondary screen Ki
Beta1, sequence (P08588 whole entry): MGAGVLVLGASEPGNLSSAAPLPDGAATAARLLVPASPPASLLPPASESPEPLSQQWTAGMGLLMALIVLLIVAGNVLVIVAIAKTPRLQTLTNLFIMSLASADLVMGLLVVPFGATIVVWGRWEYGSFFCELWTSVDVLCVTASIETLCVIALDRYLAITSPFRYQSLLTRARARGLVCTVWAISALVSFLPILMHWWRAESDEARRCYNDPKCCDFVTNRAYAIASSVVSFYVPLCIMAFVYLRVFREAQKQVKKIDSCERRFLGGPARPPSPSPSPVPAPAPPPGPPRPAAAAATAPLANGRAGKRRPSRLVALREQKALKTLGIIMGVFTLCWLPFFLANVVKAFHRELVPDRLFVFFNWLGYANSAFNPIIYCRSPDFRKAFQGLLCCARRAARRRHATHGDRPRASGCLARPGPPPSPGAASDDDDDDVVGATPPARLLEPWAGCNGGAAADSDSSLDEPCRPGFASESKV
From the text: as §1, §2, §3

Beta2 = Beta2 (Homo sapiens, UniProt P07550); experiment: PDSP off-target binding screen; settings: for inhibition at 10 µM: read-out: Primary screen AVE(%inhib)±SD; for Ki: read-out: Secondary screen Ki
Beta2, sequence (P07550 whole entry): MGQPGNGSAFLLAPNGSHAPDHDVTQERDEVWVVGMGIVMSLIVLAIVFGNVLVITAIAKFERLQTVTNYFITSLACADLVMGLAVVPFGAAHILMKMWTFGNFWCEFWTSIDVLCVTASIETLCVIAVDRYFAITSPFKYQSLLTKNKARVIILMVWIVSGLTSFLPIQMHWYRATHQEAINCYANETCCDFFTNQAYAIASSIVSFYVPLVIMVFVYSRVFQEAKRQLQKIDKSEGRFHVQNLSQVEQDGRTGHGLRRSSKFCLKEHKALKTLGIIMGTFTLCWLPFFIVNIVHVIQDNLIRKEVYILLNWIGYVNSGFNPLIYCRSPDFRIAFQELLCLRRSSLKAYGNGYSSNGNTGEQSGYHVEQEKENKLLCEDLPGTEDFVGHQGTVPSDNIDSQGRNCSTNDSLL
From the text: as §1, §2, §3

DOR = DOR (Homo sapiens, UniProt P41143); experiment: PDSP off-target binding screen; settings: for inhibition at 10 µM: read-out: Primary screen AVE(%inhib)±SD; for Ki: read-out: Secondary screen Ki
DOR, sequence (P41143 whole entry): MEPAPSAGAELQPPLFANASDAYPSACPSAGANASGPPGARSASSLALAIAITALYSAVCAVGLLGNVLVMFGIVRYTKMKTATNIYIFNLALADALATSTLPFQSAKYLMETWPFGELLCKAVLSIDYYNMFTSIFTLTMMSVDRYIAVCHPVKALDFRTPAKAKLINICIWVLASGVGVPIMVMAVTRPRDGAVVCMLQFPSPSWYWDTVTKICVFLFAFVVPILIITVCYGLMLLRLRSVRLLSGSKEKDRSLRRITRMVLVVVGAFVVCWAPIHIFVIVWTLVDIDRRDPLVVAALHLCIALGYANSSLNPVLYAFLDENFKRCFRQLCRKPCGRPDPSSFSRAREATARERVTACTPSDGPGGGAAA
From the text: as §1, §2, §3

Sigma 2 = Sigma 2 (Homo sapiens, UniProt Q5BJF2); experiment: PDSP off-target binding screen; settings: for inhibition at 10 µM: read-out: Primary screen AVE(%inhib)±SD; for Ki: read-out: Secondary screen Ki
Sigma 2, sequence (Q5BJF2 whole entry): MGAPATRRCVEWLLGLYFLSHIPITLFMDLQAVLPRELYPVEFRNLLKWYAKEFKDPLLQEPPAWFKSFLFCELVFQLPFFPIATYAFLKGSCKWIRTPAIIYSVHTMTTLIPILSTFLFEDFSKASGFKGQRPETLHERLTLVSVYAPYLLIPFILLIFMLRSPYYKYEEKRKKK
From the text: as §1, §2, §3

5-HT2A = 5-HT2A (Homo sapiens, UniProt P28223); experiment: PDSP off-target binding screen; settings: for inhibition at 10 µM: read-out: Primary screen AVE(%inhib)±SD
5-HT2A, sequence (P28223 whole entry): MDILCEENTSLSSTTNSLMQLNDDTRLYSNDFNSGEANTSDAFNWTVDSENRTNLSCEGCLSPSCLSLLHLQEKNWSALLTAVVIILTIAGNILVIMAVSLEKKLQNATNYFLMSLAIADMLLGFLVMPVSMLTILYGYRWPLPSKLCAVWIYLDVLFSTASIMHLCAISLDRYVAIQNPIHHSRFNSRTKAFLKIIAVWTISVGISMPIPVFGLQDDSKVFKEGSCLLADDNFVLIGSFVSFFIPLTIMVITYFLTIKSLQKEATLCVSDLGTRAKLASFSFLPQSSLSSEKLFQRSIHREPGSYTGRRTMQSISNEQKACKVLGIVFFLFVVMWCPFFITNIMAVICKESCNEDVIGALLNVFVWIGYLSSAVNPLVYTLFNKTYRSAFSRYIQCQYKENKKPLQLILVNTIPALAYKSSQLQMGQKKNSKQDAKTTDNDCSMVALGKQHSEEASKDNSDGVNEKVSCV

5-HT2B = 5-HT2B (Homo sapiens, UniProt P41595); experiment: PDSP off-target binding screen; settings: for inhibition at 10 µM: read-out: Primary screen AVE(%inhib)±SD
5-HT2B, sequence (P41595 whole entry): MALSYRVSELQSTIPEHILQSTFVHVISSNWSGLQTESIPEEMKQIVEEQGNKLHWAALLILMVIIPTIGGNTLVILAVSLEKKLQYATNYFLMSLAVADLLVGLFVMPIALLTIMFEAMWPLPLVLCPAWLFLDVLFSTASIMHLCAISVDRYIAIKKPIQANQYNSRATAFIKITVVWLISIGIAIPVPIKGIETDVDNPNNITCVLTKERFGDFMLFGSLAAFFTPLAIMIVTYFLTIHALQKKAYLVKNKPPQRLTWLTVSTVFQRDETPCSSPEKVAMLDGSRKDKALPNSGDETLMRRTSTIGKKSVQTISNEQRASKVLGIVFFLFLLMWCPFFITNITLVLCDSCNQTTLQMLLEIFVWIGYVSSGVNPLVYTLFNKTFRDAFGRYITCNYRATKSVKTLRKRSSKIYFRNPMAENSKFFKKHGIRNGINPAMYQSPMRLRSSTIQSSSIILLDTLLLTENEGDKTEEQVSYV

[2] = Buffer #1 (20 mM Tris pH 8.0), no GSH
[3] = Buffer #2 (1 x PBS pH 7.4), no GSH
[4] = Buffer #3 (20 mM HEPES pH 7.0), no GSH

SMILES: O=c1c2sc(Cl)cc2n2c(=S)[nH]nc2n1CC1CC1 [Allopole-A]
- Cell efficacy (GI50) Mean ± SD (L363 cells): failed to induce any significant antiproliferation effect
- Cell efficacy (GI50) Mean ± SD (L363 cells; listed as 19): N. S.
- Compounds detected [1, 2]: 1.3 µmol/L
- Compounds detected, % of total [1, 2]: 1.3%
- Compounds detected, pk area [1, 2]: 9.61E+06
- Compounds detected ([1]; Buffer #1 + 5 mM GSH): 95.4 µmol/L
- Compounds detected, % of total ([1]; Buffer #1 + 5 mM GSH): 95.4%
- Compounds detected, pk area ([1]; Buffer #1 + 5 mM GSH): 1.38E+09
- Compounds detected [1, 3]: 0.8 µmol/L
- Compounds detected, % of total [1, 3]: 0.8%
- Compounds detected, pk area [1, 3]: 4.90E+06
- Compounds detected ([1]; Buffer #2 + 5 mM GSH): 77.9 µmol/L
- Compounds detected, % of total ([1]; Buffer #2 + 5 mM GSH): 77.9%
- Compounds detected, pk area ([1]; Buffer #2 + 5 mM GSH): 5.81E+08
- Compounds detected [1, 4]: 1.9 µmol/L
- Compounds detected, % of total [1, 4]: 1.9%
- Compounds detected, pk area [1, 4]: 1.56E+06
- Compounds detected ([1]; Buffer #3 + 5 mM GSH): 66.9 µmol/L
- Compounds detected, % of total ([1]; Buffer #3 + 5 mM GSH): 66.9%
- Compounds detected, pk area ([1]; Buffer #3 + 5 mM GSH): 1.89E+08
- inhibition at 10 µM (5-HT1B): 17.7 ± 42.2%
- Ki (5-HT1B): > 10 µM
- inhibition at 10 µM (5-HT1E): 31.3 ± 7.6%
- Ki (5-HT1E): > 10 µM
- inhibition at 10 µM (Alpha2A): -6.3 ± 7.9%
- Ki (Alpha2A): > 10 µM
- inhibition at 10 µM (Alpha2C): 10.6 ± 4.2%
- Ki (Alpha2C): > 10 µM
- inhibition at 10 µM (Beta1): -6.2 ± 19.4%
- Ki (Beta1): > 10 µM
- inhibition at 10 µM (Beta2): -2.1 ± 19.7%
- Ki (Beta2): > 10 µM
- inhibition at 10 µM (DOR): -13.5 ± 6.8%
- Ki (DOR): > 10 µM
- inhibition at 10 µM (Sigma 2): 40.6 ± 9.5%
- Ki (Sigma 2): > 10 µM
- Ki (5-HT2A): > 10 µM
- inhibition at 10 µM (5-HT2A): 37 ± 10.4%
- Ki (5-HT2B): > 10 µM
- inhibition at 10 µM (5-HT2B): -17.7 ± 11.2%

SMILES: Cn1cnc([N+](=O)[O-])c1Sc1nnc2n(CC3CC3)c(=O)c3sc(Cl)cc3n12 [Allopole]
- GI50 (L363 cells; Homo sapiens, L-363, 48 h, read-out: Cell efficacy (GI50) Mean ± SD): 4.1 µM
- Compounds detected [1, 2]: 97.9 µmol/L
- Compounds detected, % of total [1, 2]: 97.9%
- Compounds detected, pk area [1, 2]: 7.45E+08
- Compounds detected ([1]; Buffer #1 + 5 mM GSH): 0.1 µmol/L
- Compounds detected, % of total ([1]; Buffer #1 + 5 mM GSH): 0.1%
- Compounds detected, pk area ([1]; Buffer #1 + 5 mM GSH): 8.76E+05
- Compounds detected [1, 3]: 97.6 µmol/L
- Compounds detected, % of total [1, 3]: 97.6%
- Compounds detected, pk area [1, 3]: 6.28E+08
- Compounds detected ([1]; Buffer #2 + 5 mM GSH): 0.0 µmol/L
- Compounds detected, % of total ([1]; Buffer #2 + 5 mM GSH): 0.0%
- Compounds detected, pk area ([1]; Buffer #2 + 5 mM GSH): 2.41E+03
- Compounds detected [1, 4]: 93.1 µmol/L
- Compounds detected, % of total [1, 4]: 93.1%
- Compounds detected, pk area [1, 4]: 7.80E+07
- Compounds detected ([1]; Buffer #3 + 5 mM GSH): 0.0 µmol/L
- Compounds detected, % of total ([1]; Buffer #3 + 5 mM GSH): 0.0%
- Compounds detected, pk area ([1]; Buffer #3 + 5 mM GSH): 9.35E+04
- Unmasking of the prodrug by GSH (in words) ([1]; 5 mM GSH): completely unmask
- Stability in buffer (in words) ([1]; absence of GSH): remains stable
- inhibition at 10 µM (5-HT1B): 60.8 ± 40.9%
- Ki (5-HT1B): > 10 µM
- inhibition at 10 µM (5-HT1E): 22.2 ± 10.5%
- Ki (5-HT1E): > 10 µM
- inhibition at 10 µM (Alpha2A): 9.4 ± 4.6%
- Ki (Alpha2A): > 10 µM
- inhibition at 10 µM (Alpha2C): 6.4 ± 7.5%
- Ki (Alpha2C): > 10 µM
- inhibition at 10 µM (Beta1): 67.3 ± 49.1%
- Ki (Beta1): > 10 µM
- inhibition at 10 µM (Beta2): 0.1 ± 10.6%
- Ki (Beta2): > 10 µM
- inhibition at 10 µM (DOR): -1 ± 4.8%
- Ki (DOR): > 10 µM
- inhibition at 10 µM (Sigma 2): 40.7 ± 5.8%
- Ki (Sigma 2): > 10 µM
- Ki (5-HT2A): 9.2 µM
- inhibition at 10 µM (5-HT2A): 52.4 ± 11.8%
- Ki (5-HT2B): > 10 µM
- inhibition at 10 µM (5-HT2B): -0.5 ± 5%

— publication PMC10629583, “Specific inhibition of an anticancer target, polo-like kinase 1, by allosterically dismantling its mechanism of substrate recognition” (Proceedings of the National Academy of Sciences of the …, 2023)
